Assay results published in ChEMBL document CHEMBL6078702, “Hypoxia-selective prodrug restrains tumor cells through triggering mitophagy and inducing apoptosis” (Eur J Med Chem, 2025).
pIC50: −log10 of the molar value. The source made the active and inactive calls. The rule behind the calls is not given here.

Experiments:
[1] = Toxicity in BALB/c nude mouse xenografted with human HeLa cells assessed as animal mortality at 25 to 50 mg/kg, ip qd for 14 days; format: organism-based; conditions: in vivo, dose 25-50 mg/kg, time 14 day
[2] = Acute toxicity in BALB/c nude mouse xenografted with human HeLa cells assessed as damage in liver at 1000 mg/kg, ip by H and E staining based analysis; format: organism-based; conditions: in vivo
[3] = Acute toxicity in BALB/c nude mouse xenografted with human HeLa cells assessed as damage in lung at 1000 mg/kg, ip by H and E staining based analysis; format: organism-based; conditions: in vivo
HeLa [4] = assay: Cytotoxicity against human HeLa cells under hypoxic condition incubated for 48 hrs by MTT assay; format: functional, cell-based
HepG2 [5] = assay: Cytotoxicity against human HepG2 cells under normoxia condition incubated for 48 hrs by MTT assay; format: functional, cell-based; conditions: HepG2, 48 h
HepG2 [6] = assay: Cytotoxicity against human HepG2 cells under hypoxic condition incubated for 48 hrs by MTT assay; format: functional, cell-based; conditions: HepG2, 48 h
HeLa [7] = assay: Cytotoxicity against human HeLa cells under normoxia condition incubated for 48 hrs by MTT assay; format: functional, cell-based
[8] = Toxicity in BALB/c nude mouse xenografted with human HeLa cells assessed as body weight change at 25 to 50 mg/kg, ip qd for 14 days; format: organism-based; conditions: in vivo, 336 h, dose 25-50 mg/kg, time 14 day
HeLa [9] = assay: Induction of morphological damage in human HeLa cells under hypoxic condition by Hoechst 33342 staining based analysis; format: functional, cell-based
HeLa [10] = assay: Induction of morphological change in mitochondria in human HeLa cells under hypoxic condition assessed as disappearance of cristae at 5 to 10 uM incubated for 48 hrs by TEM analysis; format: functional, cell-based; conditions: dose 5-10 µM
[11] = Acute toxicity in BALB/c nude mouse xenografted with human HeLa cells assessed as damage in kidney at 1000 mg/kg, ip by H and E staining based analysis; format: organism-based; conditions: in vivo
HeLa [12] = assay: Induction of mitochondrial membrane potential dissipation in human HeLa cells under hypoxic condition at 5 uM incubated for 24 hrs by flow cytometry; format: functional, cell-based
HeLa [13] = assay: Induction of apoptosis in human HeLa cells under hypoxic condition assessed as increase in cleaved caspase-3 level at 1 to 10 uM incubated for 48 hrs by Western blot analysis; format: functional, cell-based; conditions: dose 1-10 µM
HeLa [14] = assay: Induction of morphological damage in human HeLa cells under normoxia condition by Hoechst 33342 staining based analysis; format: functional, cell-based
HeLa [15] = assay: Induction of apoptosis in human HeLa cells under hypoxic condition assessed as early apoptotic cells at 5 uM incubated for 48 hrs by Annexin V-FITC/PI staining based flow cytometry (reference value: 0.60 %); format: functional
HeLa [16] = assay: Induction of apoptosis in human HeLa cells under hypoxic condition assessed as increase in cleaved PARP-1 level at 1 to 10 uM incubated for 48 hrs by Western blot analysis; format: functional, cell-based; conditions: dose 1-10 µM
[17] = Acute toxicity in BALB/c nude mouse xenografted with human HeLa cells assessed as damage in spleen at 1000 mg/kg, ip by H and E staining based analysis; format: organism-based; conditions: in vivo
HeLa [18] = assay: Induction of apoptosis in human HeLa cells under hypoxic condition assessed as late apoptotic cells at 5 uM incubated for 48 hrs by Annexin V-FITC/PI staining based flow cytometry (reference value: 0.10 %); format: functional
HeLa [19] = assay: Induction of apoptosis in human HeLa cells under hypoxic condition assessed as necrotic cells at 5 uM incubated for 48 hrs by Annexin V-FITC/PI staining based flow cytometry (reference value: 1.17 %); format: functional
[20] = Acute toxicity in BALB/c nude mouse xenografted with human HeLa cells assessed as damage in heart at 1000 mg/kg, ip by H and E staining based analysis; format: organism-based; conditions: in vivo
HeLa [21] = assay: Induction of mitophagy in human HeLa cells under hypoxic condition assessed as co-localization of mitochondria and lysosomes at 5 uM incubated for 24 hrs by CLSM analysis; format: functional, cell-based
HeLa [22] = assay: Induction of mitophagy in human HeLa cells under hypoxic condition assessed as encapsulation of mitochondria in vacuoles at 10 uM incubated for 48 hrs by TEM analysis; format: functional, cell-based
HeLa [23] = assay: Induction of morphological change in mitochondria in human HeLa cells under hypoxic condition assessed as formation of vacuoles at 5 to 10 uM incubated for 48 hrs by TEM analysis; format: functional, cell-based; conditions: dose 5-10 µM
HeLa [24] = assay: Induction of morphological change in mitochondria in human HeLa cells under hypoxic condition assessed as increase in IMMT level at 5 uM incubated for 48 hrs by immunofluorescence based analysis; format: functional, cell-based
HeLa [25] = assay: Antitumor activity against human HeLa cells xenografted in BALB/c nude mouse at 50 mg/kg, ip qd for 14 days relative to control; format: functional; conditions: 336 h, time 14 day, read-out: TGI
HeLa [26] = assay: Induction of mitophagy in human HeLa cells under hypoxic condition assessed as decrease in p62 level incubated for 24 hrs by Western blot analysis; format: functional, cell-based; conditions: dose 1-10 µM
HeLa [27] = assay: Induction of mitochondrial membrane potential dissipation in human HeLa cells under hypoxic condition assessed as accumulation of green fluorescence at 5 uM incubated for 24 hrs by JC-1 staining based CLSM analysis; format: functional, cell-based
HeLa [28] = assay: Induction of morphological change in mitochondria in human HeLa cells under hypoxic condition assessed as formation of multi-lamellar globules at 5 uM incubated for 48 hrs by TEM analysis; format: functional, cell-based
HeLa [29] = assay: Induction of mitophagy in human HeLa cells under hypoxic condition assessed as increase in ratio of LC3-II to LC3-I levels incubated for 24 hrs by Western blot analysis; format: functional, cell-based; conditions: dose 1-10 µM
HeLa [30] = assay: Induction of morphological change in mitochondria in human HeLa cells under hypoxic condition assessed as onion-like circle formation of cristae folds in inner membrane at 5 uM incubated for 48 hrs by TEM analysis; format: functional, cell-based
HeLa [31] = assay: Antitumor activity against human HeLa cells xenografted in BALB/c nude mouse assessed as tumor growth suppression at 25 to 50 mg/kg, ip qd for 14 days; format: functional, organism-based; conditions: dose 25-50 mg/kg, time 14.0 day
HeLa [32] = assay: Antitumor activity against human HeLa cells xenografted in BALB/c nude mouse at 25 mg/kg, ip qd for 14 days relative to control; format: functional; conditions: 336 h, time 14 day, read-out: TGI
HeLa [33] = assay: Induction of apoptosis in human HeLa cells under hypoxic condition assessed as viable cells at 5 uM incubated for 48 hrs by Annexin V-FITC/PI staining based flow cytometry (reference value: 98.13 %); format: functional; conditions: read-out: Activity

Compound: COc1ccc(C(=O)/C=C/c2cccc(N)c2)cc1F
- mortality at 336 h [1]: 50%
- Activity [2]: Non-toxic
- Activity [3]: Non-toxic

Compound: COc1ccc(C(=O)/C=C/c2ccc(OC)c([N+](=O)[O-])c2)cc1Br
- pIC50 (HeLa [4]): 4.82
- pIC50 (HepG2 [5]): < 4.30
- pIC50 (HepG2 [6]): 4.81
- pIC50 (HeLa [7]): < 4.00

Compound: COc1ccc(/C=C/C(=O)c2ccc(OCc3cn(CCCC[P+](c4ccccc4)(c4ccccc4)c4ccccc4)nn3)c(Br)c2)cc1[N+](=O)[O-]
- pIC50 (HeLa [4]): < 4.30
- pIC50 (HepG2 [5]): 4.67
- pIC50 (HepG2 [6]): 4.71
- pIC50 (HeLa [7]): 4.97

Compound: O=C(/C=C/c1cccc([N+](=O)[O-])c1)c1ccc(OCc2cn(CCCC[P+](c3ccccc3)(c3ccccc3)c3ccccc3)nn2)c(Br)c1
- pIC50 (HeLa [4]): < 4.30
- pIC50 (HepG2 [5]): 4.89
- pIC50 (HepG2 [6]): 4.58
- pIC50 (HeLa [7]): < 4.30

Compound: COc1ccc(C(=O)/C=C/c2cccc([N+](=O)[O-])c2)cc1F
- Activity [8]: Non-toxic
- Activity (HeLa [9]): Active
- Activity (HeLa [10]): Active
- Activity [11]: Non-toxic
- pIC50 (HeLa [4]): 5.48
- Activity (HeLa [12]): Active
- Activity (HeLa [13]): Active
- Activity (HeLa [14]): inactive
- pIC50 (HepG2 [5]): < 4.30
- Activity [2]: Non-toxic
- pIC50 (HepG2 [6]): 5.30
- Activity (HeLa [15]): 10.21%
- Activity [3]: Non-toxic
- Activity (HeLa [16]): Active
- Activity [17]: Non-toxic
- Activity (HeLa [18]): 63.25%
- Activity (HeLa [19]): 7.74%
- Activity [20]: Non-toxic
- Activity (HeLa [21]): Active
- pIC50 (HeLa [7]): < 4.30
- Activity (HeLa [22]): Active; Result Indicates That Mitochondria Were Removed From Cells Through Autophagosomes
- Activity (HeLa [23]): Active
- Activity (HeLa [24]): Active
- inhibition in vivo at 50 mg/kg (HeLa [25]): 57.4%
- Activity (HeLa [26]): Active
- Activity (HeLa [27]): Active
- Activity (HeLa [28]): Active
- Activity (HeLa [29]): Active
- Activity (HeLa [30]): Active
- Activity (HeLa [31]): Active
- inhibition in vivo at 25 mg/kg (HeLa [32]): 30.3%
- viability at 5 µM (HeLa [33]): 18.8%

Compound: COc1ccc(C(=O)/C=C/c2ccc(OC)c([N+](=O)[O-])c2)cc1F
- pIC50 (HeLa [4]): < 4.30
- pIC50 (HepG2 [5]): < 4.30
- pIC50 (HepG2 [6]): 4.64
- pIC50 (HeLa [7]): < 4.00
